Assay results as given in publication PMC10504544, “1-deoxy-D-xylulose-5-phosphate synthase from Pseudomonas aeruginosa and Klebsiella pneumoniae reveals conformational changes upon cofactor binding” (The Journal of Biological Chemistry, 2023).

What was measured:
Assay type in all cases: biochemical
[1] = molecular target: T1, 1-deoxy-D-xylulose-5-phosphate synthase (kpDXPS) (Klebsiella pneumoniae, UniProt A6T5F3, DEL197-240/INS196GGGGGG); assay: IspC-coupled spectrophotometric assay
T1 construct: gene dxs; truncated kpDXPS; residues 197 to 240 replaced with a six glycine unit
T1 sequence (A6T5F3 whole entry, stated change not applied, the tested form may be a part): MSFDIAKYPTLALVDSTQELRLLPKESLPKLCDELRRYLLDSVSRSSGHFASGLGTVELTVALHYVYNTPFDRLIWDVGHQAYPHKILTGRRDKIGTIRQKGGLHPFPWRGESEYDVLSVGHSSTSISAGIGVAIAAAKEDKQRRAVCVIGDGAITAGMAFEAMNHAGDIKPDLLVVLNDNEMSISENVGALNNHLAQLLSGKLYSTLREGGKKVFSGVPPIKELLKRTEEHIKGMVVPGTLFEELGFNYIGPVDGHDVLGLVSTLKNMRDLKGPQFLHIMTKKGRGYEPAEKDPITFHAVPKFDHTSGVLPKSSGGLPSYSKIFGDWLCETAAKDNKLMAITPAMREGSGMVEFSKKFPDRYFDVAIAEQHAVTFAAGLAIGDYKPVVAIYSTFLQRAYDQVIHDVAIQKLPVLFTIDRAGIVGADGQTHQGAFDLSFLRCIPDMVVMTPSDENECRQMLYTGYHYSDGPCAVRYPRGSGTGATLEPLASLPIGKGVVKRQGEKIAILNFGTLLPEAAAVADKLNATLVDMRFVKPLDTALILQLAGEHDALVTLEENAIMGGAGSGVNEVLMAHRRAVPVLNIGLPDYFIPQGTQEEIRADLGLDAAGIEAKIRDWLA

[2] = molecular target: T2, 1-deoxy-D-xylulose-5-phosphate synthase (paDXPS) (Pseudomonas aeruginosa, UniProt B7V7R4, DEL206-245/INS205GGGGGG); assay: co-crystal structure ([…] Å); coupled spectrophotometric inhibition assay
T2 construct: gene dxs; truncated paDXPS; residues 206 to 245 replaced with a six glycine unit

[3] = molecular target: T3, 1-deoxy-D-xylulose-5-phosphate synthase (paDXPS) (Pseudomonas aeruginosa, UniProt B7V7R4, DEL206-245/INS205GGGGGG); assay: IspC-coupled spectrophotometric assay; mode-of-inhibition study
T3 construct: gene dxs
T3 sequence (B7V7R4 1-627 INS205GGGGGG/DEL206-245): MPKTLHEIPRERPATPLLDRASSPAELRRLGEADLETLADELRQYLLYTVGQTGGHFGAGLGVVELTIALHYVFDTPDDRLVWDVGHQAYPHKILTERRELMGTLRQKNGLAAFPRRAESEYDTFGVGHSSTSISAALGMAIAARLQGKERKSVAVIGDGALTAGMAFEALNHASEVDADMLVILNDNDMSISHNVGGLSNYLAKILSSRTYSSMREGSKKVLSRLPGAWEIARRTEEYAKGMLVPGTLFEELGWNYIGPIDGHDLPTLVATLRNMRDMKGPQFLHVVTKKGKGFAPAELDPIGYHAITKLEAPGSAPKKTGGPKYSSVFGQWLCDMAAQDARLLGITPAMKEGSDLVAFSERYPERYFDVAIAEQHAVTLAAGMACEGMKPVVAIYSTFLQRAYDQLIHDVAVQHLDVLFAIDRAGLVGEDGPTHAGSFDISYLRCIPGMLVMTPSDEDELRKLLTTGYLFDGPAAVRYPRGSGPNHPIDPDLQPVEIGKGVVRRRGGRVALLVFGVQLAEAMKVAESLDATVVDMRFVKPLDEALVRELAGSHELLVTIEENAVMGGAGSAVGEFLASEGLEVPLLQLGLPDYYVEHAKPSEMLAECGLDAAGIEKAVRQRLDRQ

Row | Structure (SMILES) | IC50 [1] [µM] | IC50 [2] [µM] | IC50 [3] [µM]
1 | Cc1ncc(Cc2cccc(CCO)c2)c(N)n1 [2-{3-[(4-Amino-2-Methylpyrimidin-5-Yl)methyl]phenyl}ethanol] | 94 | 197 | –
2 | O=C(O)C(=O)CF [fluoropyruvate] | – | – | ~27
